In PubChem BioAssay (NCI):
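Growth conditions: 96-well plates. Treatment: test compound, 48 hours, 5 concentrations. Analysis: linear interpolation between bracketing concentrations; unreached endpoints set to highest concentration. Here, GI50 denotes the concentration required for 50% inhibition of growth. At the TGI there is no net growth.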

Tests used:
Experiment in all cases: NCI anticancer screen, dose series, 48 h
[1] = test system: SK-OV-3 ovarian
[2] = test system: LOX IMVI melanoma
[3] = test system: K-562 leukemia
[4] = test system: HOP-62 NSCLC
[5] = test system: NCI-H460 lung
[6] = test system: HCT-116 colon
[7] = test system: COLO 205 colon
[8] = test system: HOP-92 NSCLC
[9] = test system: MALME-3M melanoma
[10] = test system: DU-145 prostate

Row | SMILES | TGI [1] [µM] | TGI [2] [µM] | TGI [3] [µM] | TGI [4] [µM] | TGI [5] [µM] | TGI [6] [µM] | TGI [7] [µM] | TGI [8] [µM] | TGI [9] [µM] | TGI [10] [µM] | GI50 [1] [µM] | GI50 [2] [µM] | GI50 [3] [µM] | GI50 [4] [µM] | GI50 [5] [µM] | GI50 [6] [µM] | GI50 [7] [µM] | GI50 [8] [µM] | GI50 [9] [µM] | GI50 [10] [µM]
1 | CC(=O)OCC1C(=O)OCC1C(=O)N1Cc2cc3ccccc3nc2C1 (stereo not given) | 31.1 | 5.66 | 9.76 | 32.7 | 28.8 | 3.5 | 2.04 | 3.77 | 3.16 | 14 | – | – | – | – | – | – | – | – | – | –
2 | O=C(NCc1cn(Cc2cccc(Oc3ccccc3)c2)nn1)c1cccnc1Nc1ccc(F)cc1 | 36.1 | > 100 | > 100 | 32.5 | > 100 | > 100 | > 100 | 43.5 | > 100 | > 100 | 5.94 | 61.3 | > 100 | 6.02 | 5.25 | 5.02 | 6.22 | 10.7 | 15.1 | 8.58
3 | C[N+]1([O-])C2CCC1CC(OC(=O)C(CO)c1ccccc1)C2 (stereo not given) | > 100 | > 100 | > 100 | > 100 | > 100 | > 100 | > 100 | > 100 | > 100 | > 100 | – | – | – | – | – | – | – | – | – | –
4 | N#CC1=C(N)Oc2c(sc3c(Br)cccc23)C1c1ccc([N+](=O)[O-])cc1 (stereo not given) | 15.1 | 4.31 | 13.5 | 14 | 10.4 | 11 | 1.14 | 8.82 | 24.7 | 9.26 | 0.128 | 0.127 | 0.0458 | 0.123 | 0.0655 | 0.0799 | 0.224 | 0.0441 | 1.08 | 0.14
5 | COC(=O)c1c2c(c(C)[n+]([O-])c1C)C(=O)C(NCc1ccc(OC)cc1)=CC2=O | 15.8 | 7.3 | > 100 | 97.2 | 6.39 | 7.13 | 2.75 | 5.91 | 1.1 | 10.2 | 4.11 | 2.41 | 2.67 | 3.64 | 1.7 | 2.17 | 0.839 | 2.64 | 0.28 | 3.02
